Values of other authors, collected in patent US8865699B2, “Amino triazoles as PI3K inhibitors” (Cellzome Ltd., priority 2007, dated 2014).

Experiments:
[1] = tested on: MRL-lpr mouse model of systemic lupus erythematosus (SLE); settings: intraperitoneal administration
[2] = tested on: lymphocyte-dependent rheumatoid arthritis induced by direct collagen II injection; settings: mouse, oral
[3] = tested on: collagen II-antibody-induced arthritis; settings: wildtype mice, oral
[4] = tested on: animal model of myocardial infarction; settings: dosing after myocardial reperfusion (up to 3 hours after)

Row | SMILES | CD4+ T-cell populations [1] | glomerulonephritis [1] | life span [1] | joint inflammation and damage [2] | clinical and histologic signs of arthritis [3] | edema and inflammation in response to multiple mediators [4]
1 | O=C1NC(=O)/C(=C\c2ccc3nccnc3c2)S1 [AS-605240] | reduced CD4+ T-cell populations | reduced glomerulonephritis | prolonged life span | decreased joint inflammation and damage | reduced clinical and histologic signs of collagen II-antibody-induced arthritis | 
2 | Nc1nc(N)c2nc(-c3cccc(O)c3)c(-c3cccc(O)c3)nc2n1 [TG100-115] |  |  |  |  |  | potently inhibits edema and inflammation
